Assays:
PI3K delta = target: T1, PI3K delta (Homo sapiens, UniProt O00329); test: PI3 kinase assay (Kinase-Glo luminescence), PI3K delta; assay type: biochemical; conditions: Enzymatic Data; read-out: PI3K delta IC50 [umol]
T1 construct: for the full-length p110-d subunit are generated and fused by overlapping PCR; His tag (C); made in house; host or cells: baculovirus; Tn5 (Trichoplusia ni) or TiniPro insect cells
Procedure, shortened: (§1)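 Recombinant PI3K constructs (alfa 10 nM, delta 10 nM, gamma 150 nM) with 1 μM ATP and 10 μg/mL phosphatidylinositol in Tris pH 7.5, MgCl2, NaCl, CHAPS, DTT; 60 min (alfa, delta) or 120 min (gamma) at room temperature. ATP depletion read by Kinase-Glo luminescence; IC50 from 4-parameter logistic fit over 8 concentrations.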

PI3K beta = target: T2, PI3K beta (Homo sapiens, UniProt P42338); test: PI3 kinase assay (Kinase-Glo luminescence), PI3K beta; assay type: biochemical; conditions: Enzymatic Data; read-out: PI3K beta IC50 [umol]
T2 construct: for the full-length p110-b subunit are generated and fused by overlapping PCR; His tag (C); made in house; host or cells: baculovirus; Tn5 (Trichoplusia ni) or TiniPro insect cells
Procedure, shortened: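 PI3Kβ (25 nM, BV-949) with 10 μg/mL phosphatidylinositol in Tris pH 7.5/MgCl2/NaCl/CHAPS/DTT buffer; reaction started with 1 μM ATP, 60 min at room temperature. ATP depletion read by Kinase-Glo luminescence; 8-point dilutions, IC50 by four-parameter logistic fit.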

PI3K alfa = target: T3, PI3K alfa (Homo sapiens, UniProt P42336); test: PI3 kinase assay (Kinase-Glo luminescence), PI3K alfa; assay type: biochemical; conditions: Enzymatic Data; read-out: PI3K alfa IC50 [umol]
T3 construct: for the p110-a subunit (with a deletion of the first 20 amino acids); His tag (C); made in house; host or cells: baculovirus; Tn5 (Trichoplusia ni) or TiniPro insect cells
Procedure, shortened: as §1

PI3K gamma = target: T4, PI3K gamma (Homo sapiens, UniProt P48736); test: PI3 kinase assay (Kinase-Glo luminescence), PI3K gamma; assay type: biochemical; conditions: Enzymatic Data; read-out: PI3K gamma IC50 [umol]
T4 construct: PI3Kγ BV-950 p110g(D144aa)-C-Term His Tag; His tag (C); made in house; host or cells: construct from the Roger Williams lab (MRC LMB) in pVL1393; baculovirus; Tn5 (Trichoplusia ni) or TiniPro insect cells
Procedure, shortened: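 Kinase-Glo luminescence assay with 1 μM ATP and 10 μg/mL phosphatidylinositol (final), reaction started by ATP addition. IC50 from 4-parameter logistic fit of percent inhibition at 8 compound concentrations (usually 10 down to 0.003 […]).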

T1 sequence (O00329 with tags, fused parts or gaps limits assumed): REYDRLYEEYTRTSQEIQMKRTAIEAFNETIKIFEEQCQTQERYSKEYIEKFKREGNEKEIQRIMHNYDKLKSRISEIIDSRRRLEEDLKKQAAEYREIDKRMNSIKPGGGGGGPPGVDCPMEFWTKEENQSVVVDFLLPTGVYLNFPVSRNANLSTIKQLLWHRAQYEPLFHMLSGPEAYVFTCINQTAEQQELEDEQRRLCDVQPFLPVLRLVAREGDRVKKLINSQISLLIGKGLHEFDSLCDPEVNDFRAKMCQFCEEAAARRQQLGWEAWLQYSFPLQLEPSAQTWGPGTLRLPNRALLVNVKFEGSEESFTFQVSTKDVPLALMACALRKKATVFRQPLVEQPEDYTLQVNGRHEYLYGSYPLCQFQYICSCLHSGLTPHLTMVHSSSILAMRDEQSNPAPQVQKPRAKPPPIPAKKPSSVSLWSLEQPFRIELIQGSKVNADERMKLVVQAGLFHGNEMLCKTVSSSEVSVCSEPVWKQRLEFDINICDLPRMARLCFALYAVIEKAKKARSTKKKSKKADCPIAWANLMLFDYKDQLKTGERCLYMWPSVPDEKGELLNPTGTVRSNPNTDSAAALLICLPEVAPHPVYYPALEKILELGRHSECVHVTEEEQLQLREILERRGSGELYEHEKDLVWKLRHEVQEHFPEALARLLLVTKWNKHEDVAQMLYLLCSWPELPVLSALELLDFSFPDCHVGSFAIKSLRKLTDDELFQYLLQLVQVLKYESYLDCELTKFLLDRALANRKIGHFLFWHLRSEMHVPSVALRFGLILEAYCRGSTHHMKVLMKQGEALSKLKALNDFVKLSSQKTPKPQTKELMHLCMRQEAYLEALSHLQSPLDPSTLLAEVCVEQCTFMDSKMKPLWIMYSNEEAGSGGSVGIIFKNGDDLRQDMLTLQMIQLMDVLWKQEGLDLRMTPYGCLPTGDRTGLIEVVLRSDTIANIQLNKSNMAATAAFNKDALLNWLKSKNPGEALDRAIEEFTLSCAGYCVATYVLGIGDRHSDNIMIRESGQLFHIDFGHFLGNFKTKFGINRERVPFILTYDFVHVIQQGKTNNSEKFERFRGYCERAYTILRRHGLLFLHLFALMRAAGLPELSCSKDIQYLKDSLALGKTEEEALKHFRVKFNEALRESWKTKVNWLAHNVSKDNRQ
T2 sequence (P42338 with tags, fused parts or gaps limits assumed): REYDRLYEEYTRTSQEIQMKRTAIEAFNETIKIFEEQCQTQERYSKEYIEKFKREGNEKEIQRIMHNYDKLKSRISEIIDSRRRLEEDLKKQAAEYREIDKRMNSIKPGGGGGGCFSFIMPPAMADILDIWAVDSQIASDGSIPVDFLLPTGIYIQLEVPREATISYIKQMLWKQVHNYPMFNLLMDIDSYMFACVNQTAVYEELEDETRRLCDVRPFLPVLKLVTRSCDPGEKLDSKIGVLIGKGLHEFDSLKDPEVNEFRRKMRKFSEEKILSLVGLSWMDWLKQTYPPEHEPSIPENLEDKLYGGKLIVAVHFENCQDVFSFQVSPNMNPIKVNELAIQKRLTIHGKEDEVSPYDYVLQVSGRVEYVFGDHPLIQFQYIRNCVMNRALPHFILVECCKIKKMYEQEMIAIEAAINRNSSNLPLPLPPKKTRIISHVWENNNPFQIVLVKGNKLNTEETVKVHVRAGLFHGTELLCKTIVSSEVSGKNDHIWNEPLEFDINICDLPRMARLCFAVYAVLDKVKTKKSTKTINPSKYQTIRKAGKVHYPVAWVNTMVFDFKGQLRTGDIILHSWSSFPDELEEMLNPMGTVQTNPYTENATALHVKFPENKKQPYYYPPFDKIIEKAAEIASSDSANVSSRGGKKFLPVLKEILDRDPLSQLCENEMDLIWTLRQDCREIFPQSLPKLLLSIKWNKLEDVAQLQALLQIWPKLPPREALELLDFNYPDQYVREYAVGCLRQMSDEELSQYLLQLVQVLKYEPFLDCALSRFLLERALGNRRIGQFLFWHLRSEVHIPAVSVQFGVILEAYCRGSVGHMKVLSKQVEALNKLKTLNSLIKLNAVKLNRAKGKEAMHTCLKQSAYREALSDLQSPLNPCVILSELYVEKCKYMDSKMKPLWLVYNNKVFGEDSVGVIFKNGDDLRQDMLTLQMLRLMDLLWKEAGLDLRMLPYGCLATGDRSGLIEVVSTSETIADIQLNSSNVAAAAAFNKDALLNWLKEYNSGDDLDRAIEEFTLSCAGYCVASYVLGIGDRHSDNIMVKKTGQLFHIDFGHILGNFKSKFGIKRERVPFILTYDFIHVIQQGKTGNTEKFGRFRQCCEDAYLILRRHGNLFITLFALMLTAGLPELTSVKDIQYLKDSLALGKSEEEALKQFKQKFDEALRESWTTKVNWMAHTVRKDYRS
T4 sequence (P48736 144-1102 limits assumed): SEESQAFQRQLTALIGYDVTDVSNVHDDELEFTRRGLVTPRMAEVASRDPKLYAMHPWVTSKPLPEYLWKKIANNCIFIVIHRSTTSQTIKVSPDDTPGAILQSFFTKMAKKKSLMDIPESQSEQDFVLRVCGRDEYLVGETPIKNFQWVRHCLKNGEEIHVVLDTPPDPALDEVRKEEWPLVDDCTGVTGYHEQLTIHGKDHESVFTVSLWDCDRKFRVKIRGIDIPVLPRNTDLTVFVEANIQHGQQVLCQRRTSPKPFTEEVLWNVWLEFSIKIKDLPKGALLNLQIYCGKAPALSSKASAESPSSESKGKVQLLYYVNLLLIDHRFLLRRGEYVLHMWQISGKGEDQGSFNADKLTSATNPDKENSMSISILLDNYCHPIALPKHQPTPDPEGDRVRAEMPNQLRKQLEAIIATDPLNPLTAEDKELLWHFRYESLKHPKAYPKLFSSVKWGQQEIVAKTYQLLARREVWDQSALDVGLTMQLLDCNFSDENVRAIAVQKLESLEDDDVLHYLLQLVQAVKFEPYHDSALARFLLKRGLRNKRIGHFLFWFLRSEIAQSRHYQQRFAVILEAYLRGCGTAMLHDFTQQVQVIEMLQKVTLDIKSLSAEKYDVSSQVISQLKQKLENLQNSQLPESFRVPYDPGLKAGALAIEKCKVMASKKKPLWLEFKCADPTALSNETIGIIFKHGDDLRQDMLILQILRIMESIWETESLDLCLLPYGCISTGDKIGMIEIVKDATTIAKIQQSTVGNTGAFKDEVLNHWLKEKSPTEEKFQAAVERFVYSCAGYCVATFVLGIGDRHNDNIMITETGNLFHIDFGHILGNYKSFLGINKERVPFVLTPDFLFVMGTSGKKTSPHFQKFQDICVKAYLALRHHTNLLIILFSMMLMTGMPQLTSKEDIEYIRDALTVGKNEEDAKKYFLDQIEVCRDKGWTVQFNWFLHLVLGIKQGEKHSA
T3 sequence (P42336 with tags, fused parts or gaps limits assumed): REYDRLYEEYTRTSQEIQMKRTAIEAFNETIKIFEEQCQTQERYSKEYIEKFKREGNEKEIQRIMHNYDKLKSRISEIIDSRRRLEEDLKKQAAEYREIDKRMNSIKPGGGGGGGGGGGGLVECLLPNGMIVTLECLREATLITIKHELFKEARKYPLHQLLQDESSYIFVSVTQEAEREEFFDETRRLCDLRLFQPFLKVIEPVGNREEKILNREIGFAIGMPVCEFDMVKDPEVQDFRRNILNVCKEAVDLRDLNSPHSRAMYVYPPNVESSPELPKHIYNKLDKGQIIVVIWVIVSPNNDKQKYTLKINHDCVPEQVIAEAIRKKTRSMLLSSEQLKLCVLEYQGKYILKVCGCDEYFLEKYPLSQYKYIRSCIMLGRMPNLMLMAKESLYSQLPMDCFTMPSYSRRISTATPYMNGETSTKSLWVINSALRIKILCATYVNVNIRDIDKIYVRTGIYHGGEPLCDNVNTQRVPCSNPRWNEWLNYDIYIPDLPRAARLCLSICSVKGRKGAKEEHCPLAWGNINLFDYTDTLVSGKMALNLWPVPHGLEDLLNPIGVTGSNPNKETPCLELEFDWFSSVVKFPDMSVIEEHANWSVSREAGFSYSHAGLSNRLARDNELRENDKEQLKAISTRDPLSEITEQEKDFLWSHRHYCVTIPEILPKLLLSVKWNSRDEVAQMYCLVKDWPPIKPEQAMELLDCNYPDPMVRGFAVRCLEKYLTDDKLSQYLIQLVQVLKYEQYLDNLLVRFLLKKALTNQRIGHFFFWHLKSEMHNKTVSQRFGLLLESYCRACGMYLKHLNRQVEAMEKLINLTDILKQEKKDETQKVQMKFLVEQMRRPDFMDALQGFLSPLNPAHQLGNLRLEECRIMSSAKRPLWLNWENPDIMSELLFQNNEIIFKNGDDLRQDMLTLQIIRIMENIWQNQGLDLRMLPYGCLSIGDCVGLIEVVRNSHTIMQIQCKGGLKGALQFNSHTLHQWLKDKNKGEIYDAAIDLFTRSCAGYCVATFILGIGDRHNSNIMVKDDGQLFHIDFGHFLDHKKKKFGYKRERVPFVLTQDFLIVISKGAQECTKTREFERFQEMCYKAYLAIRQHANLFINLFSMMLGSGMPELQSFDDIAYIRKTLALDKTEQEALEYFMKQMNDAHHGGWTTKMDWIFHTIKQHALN

| melting point [°C] | IC50 (PI3K delta) [nM] | IC50 (PI3K beta) [nM] | IC50 (PI3K alfa) [nM] | IC50 (PI3K gamma) [nM] | SMILES |
| --- | --- | --- | --- | --- | --- |
| 263 to 266 |  |  |  |  | Nc1ncc(-c2ccc3ncc(-c4ccc(CN5CCC(C(=O)N6CCCCC6)CC5)cc4)n3n2)cc1C(F)(F)F [Example 183, (1-{4-[6-(6-Amino-5-trifluoromethyl-pyridin-3-yl)-imidazo[1,2-b]pyridazin-3-yl]-benzyl}-piperidin-4-yl)-piperidin-1-yl-methanone] |
| 131 to 133 |  |  |  |  | COc1ccc(-c2cnn3ccc(-c4ccc(OCCCNC(=O)OC(C)(C)C)c(OC)c4)nc23)cc1OC [Example 25, (3-{4-[3-(3,4-Dimethoxy-phenyl)-pyrazolo[1,5-a]pyrimidin-5-yl]-2-methoxy-phenoxy}-propyl)-carbamic acid tert-butyl ester] |
| 249 to 252 |  |  |  |  | Nc1ncc(-c2ccc3ncc(-c4ccc(CN5CCC(C(=O)N6CCCCCC6)CC5)cc4)n3n2)cc1C(F)(F)F [Example 182, (1-{4-[6-(6-Amino-5-trifluoromethyl-pyridin-3-yl)-imidazo[1,2-b]pyridazin-3-yl]-benzyl}-piperidin-4-yl)-azepan-1-yl-methanone] |
|  | 231 | 274 | 147 | 814 | Nc1ncc(-c2ccc3ncc(-c4cncc(C(F)(F)F)c4)n3n2)cc1C(F)(F)F [Example 54, 3-Trifluoro-methyl-5-[3-(5-trifluoro-methyl-pyridin-3-yl)-imidazo [1,2-b]pyridazin-6-yl]-pyridin-2-ylamine] |
|  | 201 | 134 | 151 | 7250 | NCCCOc1ccc(-c2cnc3ccc(-c4cnc(N)c(C(F)(F)F)c4)nn23)cc1 [Example 141, 5-{3-[4-(3-Amino-propoxy)-phenyl]-imidazo [1,2-b]pyridazin-6-yl}-3-trifluoro-methyl-pyridin-2-ylamine] |
|  | 1110 | > 9100 | 1140 | 4690 | Nc1ncc(-c2cnc3ccc(-c4ccc(OCCCN5CCCC5=O)c(F)c4)nn23)cc1C(F)(F)F [Example 90, 1-(3-{4-[3-(6-Amino-5-trifluoro-methyl-pyridin-3-yl)-imidazo [1,2-b]pyridazin-6-yl]-2-fluoro-phenoxy}-propyl)-pyrrolidin-2-one] |
|  | 25 | 389 | 16 | 757 | COc1cc(-c2cnc3ccc(-c4cnc(N)c(C(F)(F)F)c4)nn23)ccc1C(=O)N1CCN(c2ccccn2)CC1 [Example 120, {4-[6-(6-Amino-5-trifluoro-methyl-pyridin-3-yl)-imidazo [1,2-b]pyridazin-3-yl]-2-methoxy-phenyl}-(4-pyridin-2-yl-piperazin-1-yl)-methanone] |
|  | 623 | 1120 | 190 | 2560 | COc1cccc(-c2ccc3ncc(-c4cnc(N)c(C(F)(F)F)c4)n3n2)c1 [Example 77, 5-[6-(3-Methoxy-phenyl)-imidazo [1,2-b]pyridazin-3-yl]-3-trifluoro-methyl-pyridin-2-ylamine] |
|  | 1270 | 6930 | 157 | 5840 | c1cnn(CCOc2ccc(-c3ccc4ncc(-c5cnc6[nH]ccc6c5)n4n3)cc2)c1 [Example 93, 6-[4-(2-Pyrazol-1-yl-ethoxy)-phenyl]-3-(1H-pyrrolo [2,3-b]pyridin-5-yl)-imidazo [1,2-b] pyridazine] |
|  | 61 | 185 | 49 | 480 | Nc1ncc(-c2ccc3ncc(-c4ccc(OCCCN5CCOCC5)cc4)n3n2)cc1C(F)(F)F [Example 171, 5-{3-[4-(3-Morpholin-4-yl-propoxy)-phenyl]-imidazo [1,2-b]pyridazin-6-yl}-3-trifluoro-methyl-pyridin-2-ylamine] |
|  | 29 | 157 | 18 | 529 | Nc1ncc(-c2ccc3ncc(-c4ccc(S(=O)(=O)NCCN5CCOCC5)cc4)n3n2)cc1C(F)(F)F [Example 124, 4-[6-(6-Amino-5-trifluoro-methyl-pyridin-3-yl)-imidazo [1,2-b]pyridazin-3-yl]-N-(2-morpholin-4-yl-ethyl)-benzene-sulfonamide] |
|  | 207 | 355 | 131 | 371 | Nc1ncc(-c2cnc3ccc(-c4ccc(OC5CCNCC5)cc4)nn23)cc1C(F)(F)F [Example 165, 5-{6-[4-(Piperidin-4-yloxy)-phenyl]-imidazo [1,2-b]pyridazin-3-yl}-3-trifluoro-methyl-pyridin-2-ylamine] |
|  | 55 | 182 | 26 | 490 | COc1cc(-c2cnc3ccc(-c4cnc(N)c(C(F)(F)F)c4)nn23)ccc1C(=O)NCCCN1CCOCC1 [Example 125, 4-[6-(6-Amino-5-trifluoro-methyl-pyridin-3-yl)-imidazo [1,2-b]pyridazin-3-yl]-2-methoxy-N-(3-morpholin-4-yl-propyl)-benzamide] |
|  | 1010 | 2190 | 165 | 2740 | COC(=O)NCCCOc1ccc(-c2ccc3ncc(-c4cnc(N)c(C(F)(F)F)c4)n3n2)cc1OC [Example 50, (3-{4-[3-(6-Amino-5-trifluoromethyl-pyridin-3-yl)-imidazo[1,2-b]pyridazin-6yl]-2-methoxy-phenoxy}-propyl)-carbamic acid methyl ester] |
|  | 31 | 132 | 13 | > 9100 | Nc1ncc(-c2ccc3ncc(-c4ccc(C(=O)NCCn5ccnc5)cc4)n3n2)cc1C(F)(F)F [Example 150, 4-[6-(6-Amino-5-trifluoro-methyl-pyridin-3-yl)-imidazo [1,2-b]pyridazin-3-yl]-N-{2-imidazol-1-yl-ethyl)-benzamide] |
|  | 63 | 49 | 58 | 491 | NCCn1cc(-c2ccc3ncc(-c4cnc(N)c(C(F)(F)F)c4)n3n2)ccc1=O [Example 70, 1-(2-Amino-ethyl)-5-[3-(6-amino-5-trifluoro-methyl-pyridin-3-yl)-imidazo [1,2-b]pyridazin-6-yl]-1H-pyridin-2-one] |
|  | > 9100 | > 9100 | 6900 | > 9100 | CC(C)(C)OC(=O)NCCCOc1ccc(-c2cnc3ccc(-c4cnc(N)c(C(F)(F)F)c4)nn23)cc1OC(F)(F)F [Example 40, (3-{4-[6-(6-Amino-5-trifluoro-methyl-pyridin-3-yl)-imidazo [1,2-b]pyridazin-3-yl]-2-trifluoro-methoxy-phenoxy}-propyl)-carbamic acid tert-butylester] |
|  | 11 | 134 | 4 | 573 | COc1cc(-c2ccc3ncc(-c4cnc(N)c(C(F)(F)F)c4)n3n2)ccc1OCCN1CCCC1=O [Example 103, 1-(2-{4-[3-(6-Amino-5-trifluoro-methyl-pyridin-3-yl)-imidazo [1,2-b]pyridazin-6-yl]-2-methoxy-phenoxy}-ethyl)-pyrrolidin-2-one] |
|  | 6810 | > 9100 | 562 | 316 | CC(C)C(=O)NCCCOc1ccc(-c2ccc3ncc(-c4cnc(N)c(C(F)(F)F)c4)n3n2)cc1OC(F)(F)F [Example 64, N-(3-{4-[3-(6-Amino-5-trifluoro-methyl-pyridin-3-yl)-imidazo [1,2-b]pyridazin-6-yl]-2-trifluoro-methoxy-phenoxy}-propyl)-iso-butyramide] |
|  | 9 | 28 | 3 | 2400 | COc1cc(-c2cnc3ccc(-c4cnc(N)c(C(F)(F)F)c4)nn23)c(F)cc1C(=O)NCCn1ccnc1 [Example 161, 4-[6-(6-Amino-5-trifluoro-methyl-pyridin-3-yl)-imidazo (1,2-b]pyridazin-3-yl]-5-fluoro-N-(2-imidazol-1-yl-ethyl)-2-methoxy-benzamide] |
|  | 319 | 3160 | 45 | > 9100 | Nc1ncc(-c2ccc3ncc(-c4ccc(OCCCNC(=O)C5CC5)cc4)n3n2)cc1C(F)(F)F [Example 142, Cyclo-propane-carboxylic acid (3-{4-[6-(6-amino-5-trifluoro-methyl-pyridin-3-yl)-imidazo [1,2-b]pyridazin-3-yl]-phenoxy}-propyl)-amide] |
|  | 336 | 2220 | 297 | 3500 | COc1ccc(-c2ccc3ncc(-c4ccc(NS(C)(=O)=O)cc4)n3n2)cc1OC [Example 44, N-{4-[6-(3,4-Dimethoxy-phenyl)-imidazo [1,2-b]pyridazin-3-yl]-phenyl}-methane-sulfonamide] |

Reference: patent publication US20100311729A1, “Substituted imidazopyridazines and pyrrolopyrimidines as lipid kinase inhibitors” (priority 2007, published 2010)
